Data as given in US20230414735A1, “NEOANTIGENS AND METHODS OF THEIR USE” (priority 2016, published 2023).
Where two headings read alike, the source gives them in different places. Where a SMILES comes first, the peptide text is derived from it. Where no end group is shown, it is not given here.

Experiments:
[1] = system: ovarian carcinoma patients; conditions: ovarian carcinoma patients immunized with poly-ICLC in combination with a NYESO-1 peptide vaccine (in addition to Montanide); phase 1 study; cited from earlier work
HLA class I molecule [2] = test: HLA class I peptide binding affinity assay (inhibition of 125I-radiolabeled probe peptide binding to purified HLA); design: species or system human; conditions: read-out: Observed Affinity (IC50, (nM))
Procedure: (§1) Epstein-Barr virus (EBV)-transformed homozygous cell lines, fibroblasts, CIR, or 721.22 transfectants are used as sources of HLA class I molecules. […] HLA molecules are purified from lysates by affinity chromatography. The lysates are passed over a column of Sepharose CL-4B beads coupled to an appropriate antibody. […] A 1/25 volume of 2.0 M Tris, pH 6.8, is added to the eluate to reduce the pH to […]. Eluates are then concentrated by centrifugation in Centriprep 30 concentrators (Amicon, Beverly, MA). Protein content is evaluated by a BCA protein assay (Pierce Chemical Co., Rockford, IL) and confirmed by SDS-PAGE.
(§2) Following incubation, MHC-peptide complexes are separated from free peptide by gel filtration on 7.8 mm×15 cm TSK200 columns (TosoHaas 16215, Montgomeryville, PA). Because the large size of the radiolabeled peptide used for the DRB1*1501 (DR2w2(31) assay makes separation of bound from unbound peaks more difficult under these conditions, all DRB1*1501 (DR2w2(31) assays were performed using a 7.8 mm×30 cm TSK2000 column eluted at 0.6 mLs/min. The eluate from the TSK columns is passed through a Beckman 170 radioisotope detector, and radioactivity is plotted and integrated using a Hewlett-Packard 3396A integrator, and the fraction of peptide bound is determined.
(§3) Radiolabeled peptides are iodinated using the chloramine-T method. […] All subsequent inhibition and direct binding assays are performed using these HLA concentrations.
(§4) Since under these conditions [label]<[HLA] and IC50≥[HLA], the measured IC50 values are reasonable approximations of the true KD values. […] For database purposes, and inter-experiment comparisons, relative binding values are compiled. These values can subsequently be converted back into IC50 nM values by dividing the IC50 nM of the positive controls for inhibition by the relative binding of the peptide of interest.
(§5) HLA binding assays were used to evaluate either the affinity of interaction of a given epitope with a selected HLA molecule or the stability.
(§6) The measurements are plotted against the predicted affinity in FIG. 1.

HLA Class I molecules = test: HLA class I binding stability assay (pMHC-I complex dissociation, 125I-labeled β2m, scintillation counts); design: species or system human
[3] = system: HLA-A02:01+ T cells (CD8+ T cells); test: Immunogenicity assay: CD8+ T cell expansion with peptide-loaded monocyte-derived dendritic cells, multimer/tetramer staining; type: cell-based, human; conditions: HLA-A02:01^+ T cells co-cultured 10 days with peptide-loaded monocyte-derived dendritic cells; initial and validation multimer preparations; shown as examples of positive multimer staining (FIGS. 3-6)
HLA class I molecule [4] = biological target: T1, HLA class I molecule (Homo sapiens, UniProt P04439); test: HLA class I peptide binding affinity assay (inhibition of 125I-radiolabeled probe peptide binding to purified HLA); conditions: Allele A03.01; read-out: Observed Affinity (IC50; (nM))
T1 construct: made in house; host or cells: EBV-transformed homozygous cell lines, fibroblasts, CIR or 721.22 transfectants; purified from detergent lysates on an anti-HLA antibody column
Procedure: as §1, §2, §3, §4, §5, §6

[5] = allele A02.01, pMHC-I dissociation at 37° C.
[6] = allele A24.02, pMHC-I dissociation at 37° C.

Molecule	IC50 (HLA class I molecule [2]; allele A02.01)	Stability (T1/2 (h)) (HLA Class I molecules; allele A02.01, 37° C.)	Stability (T1/2 (h)) (HLA Class I molecules; [5])	other results
poly-ICLC	–	–	–	patients showing induction of CD4+ and CD8+ T cell, as well as antibody responses to the peptide [1]: > 90%
MNIANLLGA	128 nM	0.3 h	–	–
YQQQQQSDL	799 nM	0.4 h	–	IC50 (HLA class I molecule [2]; allele B08.01): 18900 nM
WLHKRGKYI	1250 nM	–	1.2 h	IC50 (HLA class I molecule [2]; allele B08.01): 417 nM; Stability (T1/2 (h)) (HLA Class I molecules; allele B08.01, pMHC-I dissociation at 37° C.): 1.3 h
LLAFWDSQV	68 nM	12.8 h	–	–
KLGGGQHGEV	387 nM	–	0.4 h	–
SMLTGPPARV [HLA-A02:01]	–	–	–	antigen-specific (multimer-double-positive) CD8^+ T cells, multimer staining [3]: antigen-specificity
ALNSEALSV [HLA-A02:01]	–	–	–	antigen-specific (multimer-double-positive) CD8^+ T cells, multimer staining [3]: antigen-specificity
YLVIQLQDKF	2060 nM	–	–	IC50 (HLA class I molecule [2]; allele A24.02): 2150 nM; Stability (T1/2 (h)) (HLA Class I molecules; [6]): 2.6 h
LLCVWVSSI [HLA-A02:01]	–	–	–	antigen-specific (multimer-double-positive) CD8^+ T cells, multimer staining [3]: antigen-specificity
KLFSCLSFL	6 nM	–	14.3 h	Stability (T1/2 (h)) (HLA Class I molecules; allele A03.01, pMHC-I dissociation at 37° C.): 0.8 h
PLYGLLLEM	640 nM	–	0.7 h	–
LVVVGACGV	1210 nM	0.6 h	–	–
PLCDLLLEML	2010 nM	–	0.9 h	–
WMTETLFDI	14 nM	4 h	–	–
CC[C@H](C)[C@H](NC(=O)[C@H](Cc1c[nH]c2ccccc12)NC(=O)[C@H](CS)NC(=O)[C@H](Cc1ccccc1)NC(=O)[C@@H](N)Cc1ccccc1)C(=O)N[C@@H](CC(C)C)C(=O)N[C@@H](CO)C(=O)N[C@@H](CS)C(=O)N[C@@H](CCCCN)C(=O)O (H-FFCWILSCK-OH)	–	–	–	IC50 (HLA class I molecule [4]): 185 nM
YLGNHMNIA	117 nM	0.6 h	–	IC50 (HLA class I molecule [2]; allele B08.01): 872 nM

Second part, led by results:

IC50 (HLA class I molecule [2]; allele A02.01)	Stability (T1/2 (h)) (HLA Class I molecules; allele A02.01, 37° C.)	Stability (T1/2 (h)) (HLA Class I molecules; [5])	Molecule	other results
15 nM	2.9 h	–	CC(C)C[C@H](NC(=O)[C@H](C)N)C(=O)N[C@@H](CC(N)=O)C(=O)N[C@@H](CO)C(=O)N[C@@H](CCC(=O)O)C(=O)N[C@@H](C)C(=O)N[C@@H](CC(C)C)C(=O)N[C@@H](CO)C(=O)N[C@H](C(=O)N[C@H](C(=O)O)C(C)C)C(C)C	–
311 nM	–	8.9 h	LMELMAGGDL	–
79 nM	27.3 h	–	ALSEHCPTT	–
404 nM	–	2.7 h	PLSDLLLEM	–
177 nM	–	0.4 h	CC[C@H](C)[C@H](NC(=O)[C@@H](N)CC(C)C)C(=O)N[C@@H](CCSC)C(=O)N[C@@H](CCC(N)=O)C(=O)N[C@@H](CC(C)C)C(=O)N[C@@H](CCSC)C(=O)N1CCC[C@H]1C(=O)N[C@@H](Cc1ccccc1)C(=O)NCC(=O)N[C@@H](CS)C(=O)O	–
187 nM	0.9 h	–	CC(C)[C@H](N)C(=O)N[C@H](C(=O)N1CCC[C@H]1C(=O)N[C@@H](CS)C(=O)N[C@@H](CCC(=O)O)C(=O)N1CCC[C@H]1C(=O)N1CCC[C@H]1C(=O)N[C@@H](CCC(=O)O)C(=O)N[C@H](C(=O)O)C(C)C)C(C)C	–
10 nM	5.1 h	–	VLHECNSLYI	–
219 nM	–	24 h	CLADVLLSV	–
68 nM	–	1.5 h	LQMDFLVHPA	–
295 nM	1.1 h	–	VLTVTSTDV	–
728 nM	0.3 h	–	ALSASNSCF	–
390 nM	0.4 h	–	SLYIVGFYGA	–
223 nM	–	0.5 h	ILMELMAGG	–
602 nM	–	0.8 h	PLCDLLLEM	–
101 nM	–	0.3 h	KGPELFPLI	IC50 (HLA class I molecule [2]; allele A24.02): 14 nM; Stability (T1/2 (h)) (HLA Class I molecules; [6]): 1.7 h
558 nM	–	0.4 h	GLLLEMLDA	–
31 nM	9.8 h	–	SMLTDSLFL	–
151 nM	–	4.2 h	PLNDLLLEM	–
1200 nM	–	0.4 h	GVYTFLPSTL	–
